Molecular target: T1, human Nav1.7 (hNav1.7) (Homo sapiens, UniProt Q15858)
T1 construct: expressed in transfected cells
Experiment: hNav1.7 whole-cell patch-clamp electrophysiology (automated PatchXpress 7000A or manual) in stably expressing 293 cells
Type: cell-based
In short: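 Stably transfected 293 cells lacking endogenous sodium channels; peak current evoked by depolarizing pulses during increasing compound concentrations, automated at ~20% fractional inactivation, or manually at −140 mV (resting) and ~20% inactivation. Block taken at steady state, corrected for rundown; IC50 by Hill fit.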

[1] = human Nav1.7 stably expressed in 293 cells, whole-cell patch clamp, average IC50 from Hill fit

T1 sequence (Q15858 whole entry): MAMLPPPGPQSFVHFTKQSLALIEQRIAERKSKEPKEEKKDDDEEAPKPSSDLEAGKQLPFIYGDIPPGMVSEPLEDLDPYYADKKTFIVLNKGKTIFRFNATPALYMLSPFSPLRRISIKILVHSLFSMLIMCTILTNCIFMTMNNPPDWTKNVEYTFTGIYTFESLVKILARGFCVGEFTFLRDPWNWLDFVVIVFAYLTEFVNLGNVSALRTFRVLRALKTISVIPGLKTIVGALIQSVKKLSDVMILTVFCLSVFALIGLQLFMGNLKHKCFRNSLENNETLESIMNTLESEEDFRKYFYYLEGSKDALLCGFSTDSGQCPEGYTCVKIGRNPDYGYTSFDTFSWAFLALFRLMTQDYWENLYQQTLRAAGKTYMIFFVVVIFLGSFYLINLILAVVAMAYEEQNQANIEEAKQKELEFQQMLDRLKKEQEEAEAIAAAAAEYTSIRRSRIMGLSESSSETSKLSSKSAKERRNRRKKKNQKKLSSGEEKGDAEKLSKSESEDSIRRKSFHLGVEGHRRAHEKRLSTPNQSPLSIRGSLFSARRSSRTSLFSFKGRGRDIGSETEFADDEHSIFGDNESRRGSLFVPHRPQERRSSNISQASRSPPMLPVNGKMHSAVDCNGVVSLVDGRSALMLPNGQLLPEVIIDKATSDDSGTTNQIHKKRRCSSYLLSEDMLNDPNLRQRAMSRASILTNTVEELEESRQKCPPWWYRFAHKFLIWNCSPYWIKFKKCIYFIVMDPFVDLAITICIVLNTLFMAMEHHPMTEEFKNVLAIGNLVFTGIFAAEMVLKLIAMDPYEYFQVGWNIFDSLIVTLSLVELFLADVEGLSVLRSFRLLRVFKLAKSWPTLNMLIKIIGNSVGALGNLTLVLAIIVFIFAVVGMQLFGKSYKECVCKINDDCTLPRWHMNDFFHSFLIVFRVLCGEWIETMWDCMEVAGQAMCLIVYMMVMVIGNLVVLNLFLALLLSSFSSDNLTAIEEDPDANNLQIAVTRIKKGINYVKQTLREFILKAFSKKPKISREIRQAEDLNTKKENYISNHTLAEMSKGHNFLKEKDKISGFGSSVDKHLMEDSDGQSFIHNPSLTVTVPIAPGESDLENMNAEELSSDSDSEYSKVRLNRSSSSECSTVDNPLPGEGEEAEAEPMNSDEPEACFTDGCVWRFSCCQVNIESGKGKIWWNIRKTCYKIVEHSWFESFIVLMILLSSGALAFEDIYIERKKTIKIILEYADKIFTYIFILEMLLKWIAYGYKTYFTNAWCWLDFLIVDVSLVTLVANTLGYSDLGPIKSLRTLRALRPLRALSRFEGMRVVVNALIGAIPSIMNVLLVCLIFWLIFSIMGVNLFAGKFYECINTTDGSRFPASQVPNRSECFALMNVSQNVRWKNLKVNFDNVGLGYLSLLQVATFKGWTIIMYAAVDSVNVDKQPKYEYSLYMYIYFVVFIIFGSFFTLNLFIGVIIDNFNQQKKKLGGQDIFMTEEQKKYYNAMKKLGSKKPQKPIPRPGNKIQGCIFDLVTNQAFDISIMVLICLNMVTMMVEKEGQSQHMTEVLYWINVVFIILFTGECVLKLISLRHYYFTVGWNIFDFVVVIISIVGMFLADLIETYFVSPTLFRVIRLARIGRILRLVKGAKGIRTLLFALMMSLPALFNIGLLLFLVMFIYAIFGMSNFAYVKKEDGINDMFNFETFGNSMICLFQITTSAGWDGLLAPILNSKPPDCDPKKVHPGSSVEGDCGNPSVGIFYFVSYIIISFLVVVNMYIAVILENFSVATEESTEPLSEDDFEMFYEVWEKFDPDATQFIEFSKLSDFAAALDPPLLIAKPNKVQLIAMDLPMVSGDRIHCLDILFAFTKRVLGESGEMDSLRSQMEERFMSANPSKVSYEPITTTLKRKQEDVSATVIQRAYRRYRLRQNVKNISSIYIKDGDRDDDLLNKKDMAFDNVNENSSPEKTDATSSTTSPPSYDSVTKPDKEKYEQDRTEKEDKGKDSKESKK

| SMILES | IC50 (average IC50, human Nav1.7) [µM] | further results |
| --- | --- | --- |
| CNC(=O)c1cccc(Nc2nccc(N3CC(Oc4ccc(F)cc4C)C3)n2)c1 [Example J, 3-((4-(3-(4-fluoro-2-methylphenoxy)-1-azetidinyl)-2-pyrimidinyl)amino)-N-methylbenzamide] |  | IC50 [1]: 0.08 µM |
| CNC(=O)c1cccc(Nc2ncnc(N3CCC(c4ccc(C#N)cc4)CC3)n2)c1 [Example 170] | 4.3 |  |
| CNC(=O)c1cccc(Nc2ncnc(N3CCC(c4nc(-c5ccccc5)cs4)CC3)n2)c1 [Example 24] | 0.38 |  |
| CNC(=O)c1cc(F)cc(Nc2ncnc(N3CCC(c4nc(-c5ccccc5)cs4)CC3)n2)c1 [Example 103] | 1.56 |  |
| CNC(=O)c1cccc(Nc2ncnc(N3CCN(c4cccc(C)n4)CC3)n2)c1 [Example 76] | 0.97 |  |
| CCCc1noc(C2CCN(c3ncnc(Nc4cccc(C(=O)NC)c4)n3)CC2)n1 [Example 246] | 12.7 |  |
| CNC(=O)c1cccc(Nc2ncnc(N3CCC(n4cc(-c5ccc(Cl)cc5)cn4)CC3)n2)c1 [Example 167] | 4.16 |  |
| CNC(=O)c1cccc(Nc2ncnc(N3CCC(C#N)(c4ccc(Cl)cc4)CC3)n2)c1 [Example 147] | 2.92 |  |
| CNC(=O)c1cccc(Nc2ncnc(N3CC(C)(Oc4ccc(C)cc4)C3)n2)c1 [Example 182] | 5.1 |  |
| CNC(=O)c1cccc(Nc2ncnc(N3CCC(c4csc(-c5ccccc5)n4)CC3)n2)c1 [Example 26] | 0.39 |  |
| CNC(=O)c1cccc(Nc2ncnc(N3CCN(c4cccc(C)c4)CC3)n2)c1 [Example 114] | 1.83 |  |
| CNC(=O)c1cccc(Nc2ncnc(N3CC(COc4cccc(Cl)c4)C3)n2)c1 [Example 201] | 7.03 |  |
| CNC(=O)c1cccc(Nc2nccc(N3CC(Oc4ccc(OC)cc4)C3)n2)c1 [Example D, 3-((4-(3-(4-methoxyphenoxy)-1-azetidinyl)-2-pyrimidinyl)amino)-N-methylbenzamide] |  | IC50 [1]: 0.43 µM |
| CNC(=O)c1cccc(Nc2cc(N3CC(Oc4ccc(Cl)cc4F)C3)ncn2)c1 [Example Z, 3-((6-(3-(4-chloro-2-fluorophenoxy)-1-azetidinyl)-4-pyrimidinyl)amino)-N-methylbenzamide] |  | IC50 [1]: 12.7 µM |
| CNC(=O)c1cccc(Nc2ccnc(N3CC(Oc4ccc(F)cc4)C3)n2)c1 [Example 71] | 0.9 |  |
| CNC(=O)c1cccc(Nc2ccnc(N3CC(Oc4ccc(Cl)cc4F)C3)c2)c1 [Example AA, 3-((2-(3-(4-chloro-2-fluorophenoxy)-1-azetidinyl)-4-pyridinyl)amino)-N-methylbenzamide] |  | IC50 [1]: 7.15 µM |
| CNC(=O)c1cccc(Nc2ncnc(N3CCC(Oc4cccc(Cl)c4)CC3)n2)c1 [Example 122] | 2.1 |  |
| CNC(=O)c1cccc(Nc2cc(N3CC(Oc4ccc(F)cc4)C3)ccn2)c1 [Example 179] | 4.84 |  |

| SMILES | IC50 (average IC50, human Nav1.7) [µM] | further results |
| --- | --- | --- |
| CNC(=O)c1cc(Nc2ncnc(N3CCC(c4nc(-c5ccccc5)cs4)CC3)n2)ccc1Cl [Example 27] | 0.4 |  |
| CNC(=O)c1cccc(Nc2ncnc(N3CC=C(c4ccc(C)c(C)c4)CC3)n2)c1 [Example 133] | 2.55 |  |
| CNC(=O)c1cccc(Nc2nccc(N3CC(Oc4ccc(Cl)c(Cl)c4)C3)n2)c1 [Example 59] | 0.78 |  |
| CNC(=O)c1cccc(Nc2cccc(N3CC(Oc4ccc(Cl)cc4F)C3)n2)c1 [Example W, 3-((6-(3-(4-chloro-2-fluorophenoxy)-1-azetidinyl)-2-pyridinyl)amino)-N-methylbenzamide] |  | IC50 [1]: 2.78 µM |
| CNC(=O)c1cccc(Nc2ncnc(N3CCC(C#Cc4ccccc4)CC3)n2)c1 [Example 124] | 2.16 |  |
| CNC(=O)c1cccc(Nc2ncnc(N3CCc4cccc(OC)c4C3)n2)c1 [Example 281] |  | IC50 (average IC50): 27.9 µM |
| CNC(=O)c1cccc(Nc2ncnc(NCCc3nc4cc(Cl)ccc4[nH]3)n2)c1 [Example 288] |  | IC50 (average IC50): > 30 µM |
| COCCNC(=O)c1cccc(Nc2ncnc(N3CC(Oc4ccc(F)cc4)C3)n2)c1 [Example 38] | 0.5 |  |
| CNC(=O)c1cccc(Nc2ncnc(N3CC(COc4ccc(Cl)cc4)C3)n2)c1 [Example 40] | 0.5 |  |
| CNC(=O)c1cccc(Nc2ncnc(N3CC(Oc4ccc(OCc5ccccc5)cc4)C3)n2)c1 [Example 214] | 8.47 |  |
| CNC(=O)c1cccc(Nc2ncnc(N3CCc4cc(OC)ccc4C3)n2)c1 [Example 222] | 8.96 |  |
| CNC(=O)c1cccc(Nc2ncnc(N3CCC(Oc4cccc(F)c4)CC3)n2)c1 [Example 48] | 0.65 |  |
| CNC(=O)c1cccc(Nc2ncnc(N3CCc4cc(OCC(F)(F)F)ccc4C3)n2)c1 [Example 41] | 0.52 |  |
| CNC(=O)c1cccc(Nc2ncnc(N3CCN(c4ccc(C#N)cc4)CC3)n2)c1 [Example 195] | 6.03 |  |
| CNC(=O)c1cccc(Nc2ncnc(N3CCC(Nc4ccccc4)CC3)n2)c1 [Example 257] | 16.9 |  |
| CNC(=O)c1cccc(Nc2nccc(N3CC(Oc4ccc(Cl)c(F)c4)C3)n2)c1 [Example 55] | 0.74 |  |
| CNC(=O)c1cccc(Nc2ncnc(N3CCC(c4ccc(C)c(C)c4)CC3)n2)c1 [Example 117] | 2 |  |

— US9334269B2, “Carboxamides as inhibitors of voltage-gated sodium channels” (AMGEN INC., priority 2010, dated 2016)
